The cell lines below were run with O=C(NC1CCNCC1)c1n[nH]cc1NC(=O)c1c(Cl)cccc1Cl [AT-7519] + CS(=O)(=O)N1CCN(Cc2cc3nc(-c4cccc5[nH]ncc45)nc(N4CCOCC4)c3s2)CC1 [Pictilisib] (partner 1 µM) (assay: relative viability (nuclei count vs DMSO), 5 days (fraction); higher = more cells survive). Details: first compound 1 µM.
In short: (§1)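 One day after seeding in 1536-well plates, lung cancer cell lines were dosed by pin tool. Dosing was either single-drug or a fixed anchor-drug dose plus five library-drug doses (not always all listed) in √10 steps. After 5 days, nuclei were stained in one fix-and-stain step and counted on 4× images, and relative viability is the nuclei count of treated wells over that of vehicle wells, given as the median of duplicate plates.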

Cell Line	relative viability
NCI-H1395	0.471
201T	0.77
NCI-H1915	0.417
HCC-827	0.9
LXF-289	0.746
NCI-H23	0.123
NCI-H647	0.356
NCI-H1651	0.41
EPLC-272H	0.17

What follows are cell lines tested with O=C(NC1CCNCC1)c1n[nH]cc1NC(=O)c1c(Cl)cccc1Cl [AT-7519] + NC(=O)Nc1cc(-c2cccc(F)c2)sc1C(=O)N[C@H]1CCCNC1 [AZD7762] (partner 0.2 µM) in the same assay as above. Details: first compound 0.01 µM.
In short: as §1

Cell Line	relative viability
HCC-78	0.609
NCI-H322M	0.534
LCLC-97TM1	0.24
A-427	0.791
NCI-H441	1.01
NCI-H1734	0.519
NCI-H460	0.665
NCI-H2347	0.625
NCI-H1395	0.359
201T	0.595
NCI-H1915	0.704
HCC-827	0.215
LXF-289	1.1
NCI-H23	0.258
NCI-H647	0.353
NCI-H1651	0.531
EPLC-272H	0.321

Same assay, conditions: first compound 0.03162 µM

Cell Line	relative viability
HCC-78	0.636
NCI-H322M	0.533
LCLC-97TM1	0.294
A-427	0.627
NCI-H441	1.16
NCI-H1734	0.493
NCI-H460	0.653
NCI-H2347	0.843
NCI-H1395	0.391
201T	0.591
NCI-H1915	0.689
HCC-827	0.17
LXF-289	1.14
NCI-H23	0.262
NCI-H647	0.481
NCI-H1651	0.49
EPLC-272H	0.21

Same assay, conditions: first compound 0.3162 µM

Cell Line	relative viability
HCC-78	0.616
NCI-H322M	0.578
LCLC-97TM1	0.335
A-427	0.883
NCI-H441	1.2
NCI-H1734	0.655
NCI-H460	1.02
NCI-H2347	0.725
NCI-H1395	0.425
201T	0.645
NCI-H1915	0.773
HCC-827	0.21
LXF-289	1.1
NCI-H23	0.242
NCI-H647	0.552
NCI-H1651	0.536
EPLC-272H	0.302

Same assay, conditions: first compound 1 µM

Cell Line	relative viability
HCC-78	0.815
NCI-H322M	0.639
LCLC-97TM1	0.394
A-427	0.502
NCI-H441	1.02
NCI-H1734	0.453
NCI-H460	0.693
NCI-H2347	0.469
NCI-H1395	0.348
201T	0.683
NCI-H1915	0.782
HCC-827	0.237
LXF-289	1.23
NCI-H23	0.309
NCI-H647	0.361
NCI-H1651	0.561
EPLC-272H	0.336

Each cell line was assayed with O=C(NC1CCNCC1)c1n[nH]cc1NC(=O)c1c(Cl)cccc1Cl [AT-7519] + Nc1ncn([C@H]2C[C@H](O)[C@@H](CO)O2)c(=O)n1 [Decitabine] (partner 2 µM) in the same assay as above. Details: first compound 0.01 µM.
In short: as §1

Cell Line	relative viability
HCC-78	0.688
NCI-H322M	0.654
LCLC-97TM1	0.281
A-427	0.539
NCI-H441	0.253
NCI-H1734	0.46
NCI-H460	0.452
NCI-H2347	0.561
NCI-H1395	0.658
201T	0.915
NCI-H1915	0.25
HCC-827	0.337
LXF-289	0.383
NCI-H23	0.296
NCI-H647	0.379
NCI-H1651	0.678
EPLC-272H	0.367

Same assay, conditions: first compound 0.03162 µM

Cell Line	relative viability
HCC-78	0.704
NCI-H322M	0.643
LCLC-97TM1	0.207
A-427	0.508
NCI-H441	0.213
NCI-H1734	0.463
NCI-H460	0.432
NCI-H2347	0.59
NCI-H1395	0.726
201T	0.853
NCI-H1915	0.248
HCC-827	0.347
LXF-289	0.377
NCI-H23	0.296
NCI-H647	0.37
NCI-H1651	0.555
EPLC-272H	0.322

Same assay, conditions: first compound 0.3162 µM

Cell Line	relative viability
HCC-78	0.696
NCI-H322M	0.631
LCLC-97TM1	0.196
A-427	0.604
NCI-H441	0.26
NCI-H1734	0.486
NCI-H460	0.388
NCI-H2347	0.571
NCI-H1395	0.691
201T	0.831
NCI-H1915	0.288
HCC-827	0.355
LXF-289	0.333
NCI-H23	0.298
NCI-H647	0.416
NCI-H1651	0.626
EPLC-272H	0.387

Same assay, conditions: first compound 1 µM

Cell Line	relative viability
HCC-78	0.626
NCI-H322M	0.554
LCLC-97TM1	0.169
A-427	0.53
NCI-H441	0.152
NCI-H1734	0.351
NCI-H460	0.0681
NCI-H2347	0.526
NCI-H1395	0.582
201T	0.862
NCI-H1915	0.235
HCC-827	0.3
LXF-289	0.375
NCI-H23	0.254
NCI-H647	0.237
NCI-H1651	0.614
EPLC-272H	0.298
